Consider ten compounds from patent US4816487A, “1-(2-hydroxyaryl)-alkane-1-on-oximes-procedure of preparation and use in pharmaceuticals” (Humboldt-Universitaet zu Berlin, priority 1985, dated 1989).

Molecules are shown by their SMILES.

The target of experiment [1] is T1, lipoxygenase from rabbit reticulocytes (Oryctolagus cuniculus, UniProt P12530).
T1 construct: Lipoxygenase from rabbit reticulocytes was obtained in electrophoretically and immunologically pure form; from tissue; host or cells: rabbit reticulocytes
T1 sequence (P12530 1-663): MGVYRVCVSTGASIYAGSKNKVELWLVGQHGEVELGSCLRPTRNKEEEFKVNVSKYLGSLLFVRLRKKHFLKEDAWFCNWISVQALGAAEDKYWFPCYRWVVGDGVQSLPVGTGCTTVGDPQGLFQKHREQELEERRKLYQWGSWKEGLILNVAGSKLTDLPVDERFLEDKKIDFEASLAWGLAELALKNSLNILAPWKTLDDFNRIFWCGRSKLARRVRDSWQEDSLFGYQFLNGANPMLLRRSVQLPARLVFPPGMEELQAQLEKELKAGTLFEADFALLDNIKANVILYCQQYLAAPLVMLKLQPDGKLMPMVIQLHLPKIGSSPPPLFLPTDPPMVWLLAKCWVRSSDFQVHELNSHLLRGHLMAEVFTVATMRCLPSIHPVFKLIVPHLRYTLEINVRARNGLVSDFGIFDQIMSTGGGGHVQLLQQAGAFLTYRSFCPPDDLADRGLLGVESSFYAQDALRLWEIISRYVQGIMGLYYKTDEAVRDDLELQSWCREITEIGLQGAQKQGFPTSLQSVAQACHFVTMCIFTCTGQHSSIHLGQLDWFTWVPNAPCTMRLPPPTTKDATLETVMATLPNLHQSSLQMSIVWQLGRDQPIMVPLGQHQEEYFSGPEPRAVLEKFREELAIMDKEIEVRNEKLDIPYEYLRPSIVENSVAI
In words: inhibition of activity of lipoxygenase from rabbit reticulocytes. It counts as biochemical. As to conditions: for inhibition of rabbit reticulocyte lipoxygenase by known lipoxygenase inhibitors: concentration not given; for effect on reticulocyte lipoxygenase: ultimate concentration 1 mM; for IC50: Table 3, in parentheses, read-out: I50-value, lipoxygenase from reticulocytes; for inhibition at 1000 µM: ultimate concentration 1.0 mM. The method, then: (§1) Persuasive evidence to inhibition of lipoxygenase was produced by a suitable animal lipoxygenase which had been isolated from rabbit reticulocytes, using a method by Rapoport and coworkers /S. M. Rapoport et al., Eur. J. Biochem. 96, 545 (1979)/. A final concentration of 1 mM of most of the compounds, according to this invention, produced inhibition of 90 percent or more (cf. Example 20). Significant inhibition was even recordable from a final concentration of 0.1 mM of some of the compounds, according to this invention. Substance concentrations were varied to determine the titration curves of inhibition and from these the half-inhibition concentrations (I50 -values). A half-inhibition concentration of 7 μM was established for 5-methyl-2-hydroxy-laurophenone-oxime, an oxime of high anti-asthmatic effectiveness.
Inhibition of activity of lipoxygenase from rabbit reticulocytes:
(§2) Lipoxygenase from rabbit reticulocytes was obtained in electrophoretically and immunologically pure form by means of the method described in the literature /S. M. Rapoport et al., Eur. J. Biochem. 96, 545 (1979)/. Lipoxygenase activity was determined at 25° C. by amperometric measurement of oxygen consumption by means of a Clark electrode in the following system: 0.1M potassium phosphate, pH 7.4, with 0.2-per-cent sodium cholate and 0.53 mM linoleic acid. The enzyme concentration was […] in the sample for measurement. The substances submitted for testing were dissolved in methyl glycol (fresh distillation in vacuum) and pre-incubated ten minutes with the enzyme at measurement temperature and in the absence of sodium cholate and linoleic acid. […] No remarkable inhibition occurred to control samples under these conditions. Enzyme reaction was started by addition of sodium cholate and linoleic acid. The titration curve of inhibition and, consequently, the concentrations required for inhibition by the order of 50 per cent were determined by variation of active substance concentrations. For comparison, the compounds were tested also on commercial lipoxygenase-1 from soybean.

In a further experiment the test system is sensitised guinea pig. The conditions noted are these: cited: C. Armour and D. M. Temple, Agents Action 12, 285 (1982); cited from earlier work.
For experiment [2], the target named is T2, lipoxygenase-1 from soybean (Glycine max, UniProt P08170).
T2 construct: purchased
T2 sequence (P08170 1-839): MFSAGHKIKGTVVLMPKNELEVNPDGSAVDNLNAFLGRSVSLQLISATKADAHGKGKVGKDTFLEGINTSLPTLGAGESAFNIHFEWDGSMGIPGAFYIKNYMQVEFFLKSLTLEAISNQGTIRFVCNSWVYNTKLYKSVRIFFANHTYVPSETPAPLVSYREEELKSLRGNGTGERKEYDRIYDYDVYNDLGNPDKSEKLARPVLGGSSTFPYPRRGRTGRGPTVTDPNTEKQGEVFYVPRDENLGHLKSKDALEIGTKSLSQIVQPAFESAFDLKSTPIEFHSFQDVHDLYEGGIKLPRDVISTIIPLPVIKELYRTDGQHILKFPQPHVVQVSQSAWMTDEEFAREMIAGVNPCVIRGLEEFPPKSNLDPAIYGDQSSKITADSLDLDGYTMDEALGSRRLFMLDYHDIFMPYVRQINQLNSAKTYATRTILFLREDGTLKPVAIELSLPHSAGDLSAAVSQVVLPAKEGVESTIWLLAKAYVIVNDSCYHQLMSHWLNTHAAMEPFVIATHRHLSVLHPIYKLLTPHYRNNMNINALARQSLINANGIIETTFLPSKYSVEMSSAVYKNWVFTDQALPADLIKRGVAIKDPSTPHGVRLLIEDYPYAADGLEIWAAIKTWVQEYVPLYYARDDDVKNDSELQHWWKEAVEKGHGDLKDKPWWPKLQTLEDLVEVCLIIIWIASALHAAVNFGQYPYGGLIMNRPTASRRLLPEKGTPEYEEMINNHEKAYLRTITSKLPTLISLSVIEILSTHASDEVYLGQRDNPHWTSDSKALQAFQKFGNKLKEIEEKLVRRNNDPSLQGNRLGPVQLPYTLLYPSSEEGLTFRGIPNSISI
The experiment in a line: inhibition of soybean lipoxygenase-1. The conditions noted are these: read-out: Inhibition (percent) of lipoxygenase from soybean; for inhibition at 1000 µM: ultimate concentration 1.0 mM. It is filed as biochemical. The method, then: as §1, §2

In the next experiment the test system is thrombocyte aggregation. The experiment in a line: inhibition of thrombocyte aggregation induced by arachidonic acid or platelet activation factor. It counts as cell-based, man. The method, then: Since inhibition of lipoxygenase was identified as molecular point of attack of these new medicaments, studies were conducted also into their action upon thrombocyte aggregation. The substantive role played by the lipoxygenase route in the irreversibility of thrombocyte aggregation is well established at present/C. E. Dutilh et al., Prostaglandins and Medicine 6, 111 (1981)/. A key role in the pathogenesis of thrombotic diseases is attributed to irreversibility of thrombocyte aggregation. […] In the experiments conducted for this invention, thrombocyte aggregation was triggered off either by arachidonic acid or by the platelet activation factor (PAF-acether).
Inhibition of thrombocyte aggregation induced by arachidonic acid or the platelet activation factor:
The compounds were tested for antithrombotic and thrombolytic activity in vitro on the authentic cell system of man. High-thrombocyte plasma was obtained from the blood of clinically healthy donors by 1000×g centrifugation. Thrombocyte aggregation was measured by means of an aggregometer on the basis of diffuse scatter of light or absorption of light by resulting cell aggregates. The high-thrombocyte plasma was pre-incubated with the active substances at 37° C. for three minutes. Thrombocyte aggregation was then triggered off by alternative addition of 0.8 mM of arachidonic acid or 1 μM of platelet activation factor (PAF acether). […]

Setting [3] is: read-out: Inhibition (percent) of lipoxygenase from reticulocytes.

As to `CCCCCCCCC#CCC#CCC#CCCCC(=O)O` [5,8,11-eicosatriynoic acid, reference compound], in experiment [1], the “inhibition of rabbit reticulocyte lipoxygenase by known lipoxygenase inhibitors” value (shortened to “inhibition … by known lipoxygenase inhibitors”) was “inhibited with high effectiveness”.
In the case of `CN1CCC(=C2c3ccccc3CC(=O)c3sccc32)CC1` [ketotifen, reference compound], in the experiment with sensitised guinea pig, the “comparable anti-asthmatic, anti-allergic, and anti-anaphylactic effects on a whole-animal model” value was “have not even been known”. The “effect on reticulocyte lipoxygenase” value in experiment [1] was “failed to have an effect”.
As for `CC(Cc1ccc(O)c(O)c1)C(C)Cc1ccc(O)c(O)c1` (centres unmarked) [nordihydroguaiaretic acid, reference compound], in experiment [1], the “inhibition … by known lipoxygenase inhibitors” value is on record as “inhibited with high effectiveness”.
On to `O=C(O)c1cc(=O)c2c(OCC(O)COc3cccc4oc(C(=O)O)cc(=O)c34)cccc2o1` [disodium-cromoglycate, reference compound], for which the “comparable anti-asthmatic, anti-allergic, and anti-anaphylactic effects on a whole-animal model” value in the experiment with sensitised guinea pig is on record as “have not even been known”. Besides, the “effect on reticulocyte lipoxygenase” value in experiment [1] is “failed to have an effect”.
As to `CCCCCCCCCCCCCCCCOc1ccc(C(C)=NO)c(O)c1` [4-hexadecyloxy-2-hydroxy-acetophenone-oxime], the inhibition at 500 µM in experiment [2] (ultimate concentration 0.5 mM) is 38%; in experiment [1] (ultimate concentration 0.5 mM, read-out: Inhibition (percent) of lipoxygenase from reticulocytes), 75%. Also, the IC50 in experiment [1] was 500 µM.
In the case of `COc1ccc(O)c(C(C)(C)C)c1` [3-tert.-butyl-4-hydroxy-anisol, reference compound], in experiment [1], the “inhibition … by known lipoxygenase inhibitors” value is listed as “inhibited with high effectiveness”.
The same measure, in the same setting: the same measure for `O=[N+]([O-])c1ccc(O)c(O)c1` [4-nitrocatechol, reference compound]: “inhibited with high effectiveness”.
For `CCCCCCOc1ccc(C(C)=NO)c(O)c1` [4-hexyloxy-2-hydroxy-acetophenone-oxime], the figures for the inhibition at 1000 µM in experiment [2] and in experiment [1] (setting [3]) were 68% and 100%, respectively. The IC50 in experiment [1] came to 260 µM. Also, in the experiment on thrombocyte aggregation (44 μM), the “retardation of thrombocyte aggregation” value is listed as “retarded aggregation by about two minutes”. Moreover, the “inhibition of thrombocyte aggregation” value with thrombocyte aggregation (60 μM) is reported as “total inhibition”.
For the compound `CCCCCC#CCC#CCC#CCC#CCCCC(=O)O` [5,8,11,14-eicosa-tetraynoic acid, reference compound], in experiment [1], the “inhibition … by known lipoxygenase inhibitors” value is recorded as “inhibited with high effectiveness”.
With `CCCCCC(=NO)c1cc(Cl)ccc1O` [5-chloro-2-hydroxy-caprophenone-oxime], the inhibition at 1000 µM in experiment [2] was 24%; in experiment [1] (setting [3]), 90%. Also, the IC50 in experiment [1] came to 300 µM.

By inhibition is commonly meant the drop in the measured response relative to a control, in per cent.
